Reference: patent publication US9447060B2, “Small molecule modulators of pRb inactivation” (The Wistar Institute of Anatomy and Biology, priority 2011, dated 2016)

Legend:
[1] = biological target: T1, GST-pRbABC/6×His-Ad5E1ACR1-3 complex (Homo sapiens, UniProt P06400); test: ELISA: disruption of pRb/Ad5-E1A complex; type: binding, adenovirus; details: disruption of pRb/viral oncoprotein complex; 100 nM E1A
T1 construct: made in house; host or cells: pRb: Sf9; E1A: E. coli BL21(DE3)
T1 sequence (P06400 376-928): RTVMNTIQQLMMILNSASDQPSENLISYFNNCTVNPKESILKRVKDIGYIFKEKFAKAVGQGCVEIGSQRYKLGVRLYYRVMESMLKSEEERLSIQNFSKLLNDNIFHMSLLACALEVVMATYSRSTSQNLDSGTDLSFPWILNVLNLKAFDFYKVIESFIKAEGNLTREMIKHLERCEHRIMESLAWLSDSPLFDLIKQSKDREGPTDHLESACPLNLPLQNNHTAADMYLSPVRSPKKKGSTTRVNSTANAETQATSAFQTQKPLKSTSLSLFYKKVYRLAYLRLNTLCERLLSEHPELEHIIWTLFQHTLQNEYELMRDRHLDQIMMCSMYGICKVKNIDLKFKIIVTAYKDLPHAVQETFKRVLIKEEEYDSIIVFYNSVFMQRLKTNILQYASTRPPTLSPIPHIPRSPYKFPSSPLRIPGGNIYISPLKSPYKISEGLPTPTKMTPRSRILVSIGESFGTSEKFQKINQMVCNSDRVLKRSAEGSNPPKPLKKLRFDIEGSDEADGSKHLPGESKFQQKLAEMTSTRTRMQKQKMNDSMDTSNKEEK
Method: (§1) A similar ELISA assay was used to assess the ability of the compounds to inhibit the ability of HPV16-E7-mediated disruption of E2F/pRb complexes. For these studies, 6×His-HPV1AE7CR2-3 and 6×His-Ad5E1ACR1-3, containing the L×C×E motif, were employed. The assay described above was modified in such a way that GST-pRbABC alone was added to HPV-E7CR2-3+ compound, HPV-E7CR2-3+DMSO, Ad5-E1ACR1-3+ compound, or Ad5-E1ACR1-3 DMSO. Mouse monoclonal anti-His antibody (Fisher) diluted 1:10,000 was used to detect how much His-E7CR2-3 remained bound to GST-pRbABC on the plate. Mouse monoclonal Ad5-E1A antibody (Abeam) diluted 1:10,000 was used to detect how much E1ACR1-3 remained bound to GST-pRbABC on the plate. All other steps remained unchanged.

[2] = biological target: T2, GST-pRbABC/6×His-HPV16-E7CR2-3 complex (Homo sapiens, UniProt P06400); test: ELISA: disruption of pRb/HPV16-E7 complex; type: binding; details: disruption of pRb/viral oncoprotein complex; 500 nM 16E7
T2 construct: made in house; host or cells: pRb: Sf9; E7: E. coli BL21(DE3)
T2 sequence (P06400 376-928): T1 sequence (P06400 376-928)
Method: An ELISA assay was utilized with modifications such that the amount of 6×His-HPV16-E7CR2-3 remaining bound to the partner protein on the plate could be measured. The compounds identified in Example 2 were purchased (Lankenau Institute for Medical Research) as powders. Their purity was verified by LC/MS and their structures by NMR. IC50 values were then measured for (i) the compounds identified in Example 1, (ii) the compounds prepared according to Examples 3-5, (iii) 2-phenyl-4-methyl-1,2,4-thiadiazolidin-3,5-dione (available from Molport, Latvia), and (iv) 4-benzyl-2-methyl-1,2,4-thiadiazolidin-3,5-dione (TDZD-8; Catalog No. T8325-5MG, Sigma) using the same ELISA-based assay as described for the high-throughput screen, except that the assay was performed manually in 96-well format and so all volumes used were double those from 384-well format.
All compounds were solubilized in DMSO (50 mM) and diluted for use in the ELISA-based assay at a final DMSO concentration of less than 5%. Ten-fold dilutions of thiadiazolin-3,5-dione compound (starting at 100 μM) were added to a mixture containing GST-pRbABC and 6×His-HPV16E7CR2-3. The amount of E7 remaining was determined by adding a primary anti-His antibody. The concentrations of the compounds in the IC50 experiment spanned the range of enzyme activity from no inhibition to complete inhibition. Three independent IC50 measurements were performed for each compound and the average and standard deviation values are reported. All data was imported into the GraphPad® Software (Prism) for IC50 determination. To calculate the IC50 values, the dose-response curves were fit to one-site (Hill slope=1) sigmoidal-dose-response curves.

[3] = biological target: T3, GST-pRbABC/E2F complex disrupted by 6×His-HPV1AE7CR2-3 (Homo sapiens, UniProt P06400); test: ELISA: inhibition of HPV1A-E7-mediated disruption of pRb/E2F complexes; type: binding, low risk HPV (type 1A); details: E2F remaining bound to pRb; 500 nM 1AE7
T3 construct: made in house; host or cells: pRb: Sf9; E2F1 and E7: E. coli BL21(DE3)
T3 sequence (P06400 376-928): T1 sequence (P06400 376-928)
T3 sequence (Q01094 243-437 partner limits assumed): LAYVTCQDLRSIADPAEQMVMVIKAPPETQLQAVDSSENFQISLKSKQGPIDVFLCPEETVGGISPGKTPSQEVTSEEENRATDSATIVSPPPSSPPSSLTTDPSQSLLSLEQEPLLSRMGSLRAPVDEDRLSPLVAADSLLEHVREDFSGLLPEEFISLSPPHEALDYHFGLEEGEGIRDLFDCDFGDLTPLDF
Method: (§2) Since HPV-E7 mediates high affinity pRb binding through the association of its L×C×E motif in CR2 to the B domain of pRb, the ability of the thiadiazolidinedione compounds to inhibit the ability of other L×C×E containing viral oncoproteins from disrupting E2F/pRb complexes was tested. The other L×C×E containing viral oncoproteins tested included HPV-E7 from a low risk HPV form (type 1A) and Adenovirus E1A proteins.
as §1

pRbAB = biological target: T4, pRbAB (Homo sapiens, UniProt P06400, DEL590-635); test: Isothermal titration calorimetry binding to pRbAB; details: ITC, pRbAB, 22° C.
T4 construct: untagged pRbAB (372-787 with the linker from 590-635 removed); made in house
T4 sequence (P06400 with tags, fused parts or gaps DEL590-635): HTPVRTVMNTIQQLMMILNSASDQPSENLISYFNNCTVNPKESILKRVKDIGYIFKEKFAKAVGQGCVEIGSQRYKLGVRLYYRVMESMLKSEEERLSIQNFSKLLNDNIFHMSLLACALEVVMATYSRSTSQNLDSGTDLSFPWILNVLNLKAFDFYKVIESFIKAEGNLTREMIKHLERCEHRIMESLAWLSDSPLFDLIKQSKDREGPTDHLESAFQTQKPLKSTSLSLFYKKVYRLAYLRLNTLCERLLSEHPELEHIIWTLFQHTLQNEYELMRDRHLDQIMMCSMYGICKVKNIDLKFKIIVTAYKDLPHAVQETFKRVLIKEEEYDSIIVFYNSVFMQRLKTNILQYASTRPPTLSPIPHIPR
Method: For use in isothermal titration calorimetry studies, untagged pRbAB (372-787 with the linker from 590-635 removed) was prepared as described in Xiao et al., PNAS USA, 100:2363-2368 (2003).
This example illustrates the ability of the thiadiazolin-3,5-dione compounds to bind directly to a truncated pRb protein construct containing the A and B domains of the pRb pocket (pRbAB) using isothermal titration calorimetry (ITC).
Binding of compounds 1-9 to pRbAB were measured by ITC using a MicroCal™ VP-ITC isothermal titration calorimeter (MicroCal, Inc). Proteins were extensively dialyzed against a buffer containing Hepes (20 mM), pH=7.5, NaCl (150 mM) and Tris carboxy ethyl phosphine (0.1 mM) prior to analysis. Eight to twelve μL injections of 750-1500 μM compound were titrated into a pRb solution (50-150 μM) pre-equilibrated to 22° C. After subtraction of dilution heats, calorimetric data were analyzed with the MicroCal™ Origin® V5.0 (MicroCal Software, Northampton, Mass.).

[4] = biological target: T5, GST-pRbABC/6×His-HPV1AE7CR2-3 complex (Homo sapiens, UniProt P06400); test: ELISA: disruption of pRb/HPV1A-E7 complex; type: binding, low risk HPV (type 1A); details: disruption of pRb/viral oncoprotein complex; 500 nM 1AE7
T5 construct: made in house; host or cells: pRb: Sf9; E7: E. coli BL21(DE3)
T5 sequence (P06400 376-928): T1 sequence (P06400 376-928)
Method: as §1

[5] = biological target: T6, GST-pRbABC/E2F complex disrupted by 6×His-Ad5E1ACR1-3 (Homo sapiens, UniProt P06400); test: ELISA: inhibition of adenovirus E1A-mediated disruption of pRb/E2F complexes; type: binding; details: E2F remaining bound to pRb; 100 nM E1A
T6 construct: made in house; host or cells: pRb: Sf9; E2F1 and E1A: E. coli BL21(DE3)
T6 sequence (P06400 376-928): T1 sequence (P06400 376-928)
T6 sequence (Q01094 243-437 partner limits assumed): T3 sequence (Q01094 243-437 partner limits assumed)
Method: as §2, §1

SiHa cells (HPV 16) = test: MTS cytotoxicity in SiHa cells; type: cell-based; details: 48 hours
Method: These 120 compounds were then analyzed for cytotoxicity in cervical cancer cells either infected with HPV16 (SiHa) or negative for infection with HPV (C-33A) (Yee et al., 1985). The metabolic viability of cells was measured using a MTS assay (3-(4,5-dimethylthiazol-2-yl)-5-(3-carboxymethoxyphenyl)-2-(4-sulfophenyl)-2H-tetrazolium).
Cultured cell lines were seeded in 384-well, clear, tissue culture plates (NUNC) at 10,000 cells/well and 1,000 cells/well for C-33A and SiHa, respectively, and maintained overnight. These concentrations were determined based on each cell line's doubling time. […] Cell viability was then monitored by addition of MTS reagent (8 μL; Promega) and measurement at A490 using a Wallac Envision™ plate reader after 3 hours of incubation.
Cultured cell lines were seeded in 384-well, clear, tissue culture plates (NUNC) at 10,000 cells/well, 1,000 cells/well, 1,000 cells/well, 1,000 cells/well, and 2,000 cells/well for C-33A, SiHa, HeLa, TC-1, or HCT116 cells, respectively, and maintained overnight. These concentrations were determined based on each cell line's doubling time. […] Cell viability was then monitored by addition of MTS reagent (8 μL; Promega) and measurement at A490 using a Wallac Envision™ plate reader after 3 hours of incubation.

SiHa cells = test: Cell cycle and apoptosis in SiHa cells, propidium iodide flow cytometry and morphology; type: cell-based; details: 48 hours
Method: Since the thiadiazolin-3,5-dione compounds bind to pRb, data was generated regarding their effect in cells infected with HPV. […] DNA content was determined by propidium iodine staining and analysis by flow cytometry.
Cultured cell lines were seeded in 60 mm tissue culture dishes (Falcon) at 1×10^5 cells/well. […] Cells were then trypsinized, washed with phosphate-buffered saline (1.0 mL; PBS), and fixed in ethanol (80%) for 30 minutes on ice. Fixed cells were spun at 500 g for 5 minutes, rehydrated with PBS (1 mL), and spun again to remove any traces of ethanol. Cells were stained with propidium iodide (250 μL; PI), which was prepared by adding PI (100 μL, 2 mg/ml, Sigma) and RNase A (3.5 μL of 30 mg/ml, Sigma) into PBS (10 mL). Cells were then analyzed at the Wistar Institute Flow Cytometry Core Facility using standard equipment, reagents, and methodologies known in the art.

[6] = 10 μM compound (staurosporine 2 μM)
[7] = SiHa, 10 μM compound (staurosporine 2 μM)

| Structure (SMILES) | IC50 [1] | IC50 [2] | IC50 [3] | Kd (pRbAB) | IC50 [4] | IC50 [5] | cytotoxicity in SiHa cells (SiHa cells (HPV 16)) | effect on SiHa cells (SiHa cells; [6]) | % Apoptotic (SiHa cells; [7]) | % G0/G1 (SiHa cells; [7]) | % S (SiHa cells; [7]) | morphology of SiHa cells (SiHa cells) | % G2/M (SiHa cells; [7]) |
| --- | --- | --- | --- | --- | --- | --- | --- | --- | --- | --- | --- | --- | --- |
| COc1cccc(-n2sc(=O)n(C)c2=O)c1 [Compound 7] | 2800 ± 2100 nM | 290 nM | 3500 ± 1700 nM | 815 ± 70 nM | 4000 ± 2500 nM | 3200 ± 2700 nM | – | – | – | – | – | – | – |
| CN[C@@H]1C[C@H]2O[C@@](C)([C@@H]1OC)n1c3ccccc3c3c4c(c5c6ccccc6n2c5c31)C(=O)NC4 [Staurosporine, reference compound] | – | – | – | – | – | – | toxic | most drastically affected | 34.3% | 31.3% | 13.8% | – | – |
| Cc1cccc(-n2sc(=O)n(C(C)C)c2=O)c1 [Compound 5] | 3500 ± 1700 nM | 3200 ± 1300 nM | 5500 ± 1500 nM | 210 ± 51 nM | 5500 ± 2700 nM | 1100 ± 2500 nM | – | – | – | – | – | – | – |
| Cc1ccccc1-n1sc(=O)n(C(C)C)c1=O [Compound 1] | 5000 ± 1800 nM | – | 10600 ± 1300 nM | 165 ± 52 nM | 7900 ± 2100 nM | 2800 ± 2200 nM | – | – | – | – | – | – | – |
| COn1c(=O)sn(-c2ccccc2C)c1=O [Compound 2] | 2600 ± 1300 nM | 570 ± 1200 nM | 3500 ± 1600 nM | 104 ± 25 nM | 3000 ± 2300 nM | 640 nM | – | – | – | – | – | – | – |
| Cn1c(=O)on(-c2ccc(Cl)c(Cl)c2)c1=O [2-(3,4-dimethyl-phenyl)-4-methyl-1,2,4-oxadiazolin-3,5-dione, reference compound] | – | – | – | – | – | – | – | no effect | 0.9% | 71.8% | 11.3% | maintained the elongated shape | 16.3% |
| COc1ccc(-n2sc(=O)n(C)c2=O)cc1 [Compound 6] | 7700 ± 1700 nM | 400 nM | 3300 ± 1600 nM | 381 ± 31 nM | 1300 ± 1300 nM | 1700 ± 2700 nM | – | – | – | – | – | – | – |
